Source: paper PMC4117758 (2014)

Assays:
Assay in all cases: Job plot, absorption and fluorescence
Conditions in all cases: 150 mM KCl; 10 mM Tris-HCl pH 7.4, 1 mM Na2EDTA, 400 ml/l PEG 200; 5 μM total
[1] = tested on: Hum57-M3 (DNA, G4) GGGTTAGGGTTAGGGTTAGGGTTGAGTGTGAGTGTAGGGTTAGGGTTAGGGTTAGGG
[2] = tested on: Hum45 (DNA, G4) GGGTTAGGGTTAGGGTTAGGGTTAGGGTTAGGGTTAGGGTTAGGG
[3] = tested on: Hum69 (DNA, G4) GGGTTAGGGTTAGGGTTAGGGTTAGGGTTAGGGTTAGGGTTAGGGTTAGGGTTAGGGTTAGGGTTAGGG
[4] = tested on: Hum63 (DNA, G4) GGGTTAGGGTTAGGGTTAGGGTTAGGGTTAGGGTTAGGGTTAGGGTTAGGGTTAGGGTTAGGG
[5] = tested on: Hum57-M2 (DNA, G4) GGGTTAGGGTTAGGGTTAGGGTTGAGTGTAGGGTTAGGGTTAGGGTTAGGGTGTGAG
[6] = tested on: Hum51-M2 (DNA, G4) GGGTTAGGGTTAGGGTTAGGGTTGAGTGTAGGGTTAGGGTTAGGGTTAGGG
[7] = tested on: Hum51 (DNA, G4) GGGTTAGGGTTAGGGTTAGGGTTAGGGTTAGGGTTAGGGTTAGGGTTAGGG
[8] = tested on: Hum57 (DNA, G4) GGGTTAGGGTTAGGGTTAGGGTTAGGGTTAGGGTTAGGGTTAGGGTTAGGGTTAGGG
[9] = tested on: Hum51-M1 (DNA, G4) GGGTTAGGGTTAGGGTTAGGGTTAGGGTTAGGGTTAGGGTTAGGGTGTGAG
[10] = tested on: Hum57-M1 (DNA, G4) GGGTTAGGGTTAGGGTTAGGGTTAGGGTTAGGGTTAGGGTTAGGGTGTGAGTGTGAG
[11] = tested on: Hum21 (DNA, G4) GGGTTAGGGTTAGGGTTAGGG

Measured: binding

C[N+]1(CCOc2ccc(-c3c4nc(c(-c5ccc(OCC[N+]6(C)CCCCC6)cc5)c5ccc([nH]5)c(-c5ccc(OCC[N+]6(C)CCCCC6)cc5)c5nc(c(-c6ccc(OCC[N+]7(C)CCCCC7)cc6)c6ccc3[nH]6)C=C5)C=C4)cc2)CCCCC1
yes: all assays above
